From PubChem BioAssay (NCI)
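Dose response: 5 concentrations. Exposure: 48 h. Format: 96-well plates. Endpoint: linear interpolation; highest concentration if not reached. TGI: total growth inhibition.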

Experiments:
Experiment in all cases: NCI tumour cell line growth inhibition, 48 h
[1] = system: A498 renal
[2] = system: A549 NSCLC
[3] = system: CAKI-1 renal
[4] = system: CCRF-CEM leukemia
[5] = system: COLO 205 colon
[6] = system: DLD-1 colon
[7] = system: DMS 114 small cell lung
[8] = system: DMS 273 small cell lung
[9] = system: EKVX NSCLC
[10] = system: HCC-2998 colon
[11] = system: HCT-116 colon
[12] = system: HCT-15 colon
[13] = system: HL-60(TB) leukemia
[14] = system: HOP-18 NSCLC
[15] = system: HOP-62 NSCLC
[16] = system: HOP-92 NSCLC
[17] = system: HT29 colon
[18] = system: IGROV1 ovarian
[19] = system: K-562 leukemia
[20] = system: KM12 colon
[21] = system: KM20L2 colon
[22] = system: LOX IMVI melanoma
[23] = system: MCF7 breast
[24] = system: MOLT-4 leukemia
[25] = system: NCI-H226 lung
[26] = system: NCI-H23 lung
[27] = system: NCI-H460 lung
[28] = system: NCI-H522 lung
[29] = system: NCI/ADR-RES ovarian
[30] = system: OVCAR-3 ovarian
[31] = system: OVCAR-4 ovarian
[32] = system: OVCAR-5 ovarian
[33] = system: OVCAR-8 ovarian
[34] = system: P388 leukemia
[35] = system: P388/ADR leukemia
[36] = system: RPMI-8226 leukemia
[37] = system: RXF 393 renal
[38] = system: SF-268 CNS
[39] = system: SF-295 CNS
[40] = system: SF-539 CNS
[41] = system: SK-MEL-2 melanoma
[42] = system: SK-MEL-28 melanoma
[43] = system: SK-MEL-5 melanoma
[44] = system: SK-OV-3 ovarian
[45] = system: SN12C renal
[46] = system: SN12K1 renal
[47] = system: SNB-19 CNS
[48] = system: SNB-75 CNS
[49] = system: SNB-78 CNS
[50] = system: SW-620 colon
[51] = system: U251 CNS
[52] = system: UACC-257 melanoma
[53] = system: UACC-62 melanoma
[54] = system: UO-31 renal
[55] = system: XF 498 CNS
[56] = system: 786-0 renal
[57] = system: ACHN renal
[58] = system: LXFL 529 NSCLC
[59] = system: M14 melanoma
[60] = system: M19-MEL melanoma
[61] = system: MALME-3M melanoma
[62] = system: RXF-631 renal
[63] = system: SR leukemia
[64] = system: TK-10 renal

Measured: TGI

CCCCCCNC(=O)C(C)C1CCC2(C)C=CC(=O)C(C)=C2C1O (stereo not given)
not listed: [56] | [57] | [58] | [59] | [60] | [61] | [62] | [63] | [64]
> 100 µM: all other assays above

C/C(CCn1[nH]c(=O)ccc1=O)=N\O
not listed: [5] | [23] | [28] | [29] | [34] | [35] | [44] | [46] | [51]
> 100 µM: all other assays above
